Values after ≈ are worked out from the molar mass of the structure shown. Like-named read-outs stand apart in the source and are kept apart here.
What was measured:
malarial parasites = assay: In vitro antimalarial activity, parasites in culture (strain not stated); assay type: cell-based
Protocol: (§1) Potential resistance to halofuginone derivatives of P. falciparum isolates were tested. Isolates of P. falciparum stored in liquid nitrogen are thawed and cultivated in RPMI 1640 media with 6% human erythrocytes supplemented with 10% of human serum. The parasite cultures are maintained in an atmosphere of 5% CO2, 5% O2 and 90% N2 at 37° C. for the assay. The semi-automated micro-dilution technique of Desjardins is used to assess the sensitivity of the parasites to febrifugine and halofuginone derivatives. The incorporation of [3H]-hypoxanthine into the parasites is measured as a function of compound concentration to determine EC50 values.

[1] = tested on: P. falciparum chloroquine-resistant W2-strain; assay: In vitro drug susceptibility assay ([3H]-hypoxanthine incorporation), W2 strain; assay type: cell-based; conditions: Plasmodium falciparum
Protocol: as §1

Plasmodium lophurae = conditions: duck models, purified febrifugine; cited from earlier work
Macrophage cells (J774) = assay: In vitro drug toxicity assay, macrophage cells; assay type: cell-based; conditions: Mus musculus
Neuronal cells (NG108) = assay: In vitro drug toxicity assay, neuronal cells; assay type: cell-based; conditions: NG-108
[2] = tested on: P. falciparum chloroquine-sensitive D6-strain; assay: In vitro drug susceptibility assay ([3H]-hypoxanthine incorporation), D6 strain; assay type: cell-based; conditions: Plasmodium falciparum
Protocol: as §1

Plasmodium berghei = assay: Modified Thompson test in P. berghei-infected mice; assay type: in vivo
Protocol: An active animal use protocol mouse models are used to test the above compounds to determine antimalarial activity by using modified Thompson Test. In this test, IRC mice are inoculated intraperitoneally with P. berghei-infected erythrocytes from donor mice that are anesthetized and exsanguinated via cardiac puncture to collect infected blood. The pooled blood is then diluted with normal mouse serum to a concentration of 1×10^6 P. berghei erythrocytes per inoculum (0.1 ml). The groups of testing and control mice are inoculated with the infected blood on day 0 and then treated with various dosages of halofuginone or the derivatives in aqueous-based vehicles on day 3 through the day required. The drug is administered orally (PO), subcutaneously (SC), intramuscularly (IM), and/or intraperitoneally (IP) up to three times a day, based on the requirements. Blood films and body weights are taken on the third and sixth days post-infection, then at weekly intervals through day 60. Films are Giemsa-stained, examined using light microscopy for the determination of parasitemia. All mice with negative smears at 60 days are considered cured. The data from the in vivo testing verifies the antimalarial efficacy of febrifugine, halofuginone and the halofuginone derivatives in mice and provides new properties of halofuginone and halofuginone derivatives against malarial parasites in vivo.
The modified Thompson test was conducted in eleven groups of mice with eight mice per group. The tested mice were inoculated with P. Berghei on day zero and treated with febrifugines on days three with one oral or subcutaneous treatment per day for three days. […] The parasitemia of the infected mice was reduced to less than 3% with oral administration of 10 mg/kg febrifugines one/day for three days, while mice with the subcutaneous treatment had 30% of parasitemia at the same does as shown in FIGS. 3(a) through 3(d).
Eighty-eight ICR mice were inoculated with P. berghei, and separated into nine groups. Eight of the infected groups were treated with […] different doses of halofuginone twice a day for eight days. One group was treated with physiological saline as control. […] Two mice were cured at the doses of 0.25 and 0.5 mg/kg and survived 60 days after the treatment. […] The parasites were all cleared at the does of 1 mg/kg on day six.

PfMRK = target: T1, PfMRK (Plasmodium falciparum, UniProt P90584); assay: Kinase assay, recombinant plasmodial cyclin-dependent kinase; assay type: biochemical; conditions: recombinant kinase; dash = no inhibition; read-out: PFMRK (IC50:μM)
T1 sequence (P90584 1-324): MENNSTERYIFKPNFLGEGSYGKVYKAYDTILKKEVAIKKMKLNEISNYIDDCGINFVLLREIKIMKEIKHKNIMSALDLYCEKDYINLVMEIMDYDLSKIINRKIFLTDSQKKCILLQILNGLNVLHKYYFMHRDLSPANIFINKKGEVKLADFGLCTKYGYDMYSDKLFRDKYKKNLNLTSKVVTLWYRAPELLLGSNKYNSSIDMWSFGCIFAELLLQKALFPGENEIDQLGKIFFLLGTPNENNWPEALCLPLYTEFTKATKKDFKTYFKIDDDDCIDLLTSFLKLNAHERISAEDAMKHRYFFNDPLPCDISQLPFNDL
Excerpt: Halofuginone is a known to be a specific collagen gene transcription inhibitor. However, inhibition to other target enzymes by febrifugine, halofuginone and halofuginone derivatives in malarial parasites remain unknown. Quinazoline analogues (the family to which these compounds belong) are known to target dihydrofolate reductase, mammalian EGFR kinase, the stress-activated protein kinase and cyclin dependent kinase. A series of enzymatic assays are used to detect whether the derivatives have inhibition against these enzymes. DHFR assay is conducted using a well-characterized spectrophotometric method. Kinase assays are conducted using radioisotope-labeling technique. The responses of the recombinant kinases to the derivatives are measured in a scintillation b-counter and illustrated using SDS-page gel and PhosphoImager. These tests provide information on the compounds' abilities to interfere with the functions of these enzymes and alter the parasite physiological pathways on a molecular basis.

[3] = Table 4, W2, read-out: IC50 P. falciparum (W2)
[4] = Table 4, D6, read-out: IC50 P. falciparum (D6)
[5] = Table 1, W2 strain, read-out: IC50 against P. falciparum W2 strain
[6] = Table 1, D6 strain, read-out: IC50 against P. falciparum D6 strain

For `O=C(C[C@H]1NCCCC1O)Cn1cnc2ccccc2c1=O` (stereo partly drawn) [Febrifugine, (2′S,3′R)-3-[3-(3-hydroxy-2-piperidyl)acetonyl]-4(3H)quinazolinone], the “in vitro antimalarial activity relative to chloroquine and artemisinin” value (malarial parasites) is given as “ten times stronger than chloroquine and artemisinin”, the IC50 ([1]; W2, read-out: IC50 P. falciparum (W2)) is given as 0.00053 µg/mL (≈ 0.00176 µM) and the “antimalarial activity relative to quinine” value (Plasmodium lophurae) is given as 100 times as active as quinine. For the same compound, the IC50 (Macrophage cells (J774); Table 4, J774) was 0.081 µg/mL (≈ 0.269 µM), the IC50 (Neuronal cells (NG108); Table 4, NG108) was 0.0635 µg/mL (≈ 0.211 µM) and the IC50 ([2]; D6, read-out: IC50 P. falciparum (D6)) was 0.00034 µg/mL (≈ 0.00113 µM).
In the case of `O=C(CC1NCCCC1O)Cn1cnc2cc(Br)c(Cl)cc2c1=O` (stereo not drawn) [Halofuginone], the “rank of in vitro potency against malarial parasites among febrifugine derivatives” value (malarial parasites) is reported as “the most potent analog”, the IC50 [1, 3] is reported as 0.00015 µg/mL (≈ 0.000362 µM) and the IC50 (Macrophage cells (J774); Table 4, J774) is reported as 0.132 µg/mL (≈ 0.319 µM). The “lethal toxicity in infected mice” value (Plasmodium berghei; dose higher than 1 mg/kg twice a day) was “killed the tested mice before the parasites”, the mouse survival time (Plasmodium berghei; doses of 0.125, 0.25 and 0.5 mg/kg twice a day for eight days, ICR mice) was “extended the mouse survival time” and the “parasitemia of the infected mice on day six” value (Plasmodium berghei; doses of 0.25 and 0.5 mg/kg twice a day) was “below 0.5%”. The “mice cured (survived 60 days after the treatment)” value (Plasmodium berghei; doses of 0.25 and 0.5 mg/kg twice a day for eight days) was “Two”, the IC50 (Neuronal cells (NG108); Table 4, NG108) was 0.177 µg/mL (≈ 0.427 µM) and the IC50 [2, 4] was 0.00012 µg/mL (≈ 0.000289 µM).
Compound `O=C(C[C@@H]1CCCCN1)Cn1cnc2ccccc2c1=O` [WR059421] has an IC50 (PfMRK) of ~27 µM, an IC50 [1, 5] of 0.026 µg/mL (≈ 0.0912 µM) and an IC50 [1, 3] of 0.0237 µg/mL (≈ 0.083 µM). It also gave an IC50 (Macrophage cells (J774); Table 2, J774) of 0.236 µg/mL (≈ 0.827 µM), an IC50 (Macrophage cells (J774); Table 4, J774) of 0.492 µg/mL (≈ 1.72 µM) and an IC50 (Neuronal cells (NG108); Table 2, NG108) of 5.38 µg/mL (≈ 18.9 µM). The IC50 (Neuronal cells (NG108); Table 4, NG108) was 8.93 µg/mL (≈ 31.3 µM), the IC50 [2, 6] was 0.0171 µg/mL (≈ 0.06 µM) and the IC50 [2, 4] was 0.0174 µg/mL (≈ 0.0611 µM).
`O=C(C[C@H]1CCCCN1C(=O)c1ccccc1)Cn1cnc2ccccc2c1=O` [WR059424] gave an IC50 [1, 3] of 0.284 µg/mL (≈ 0.728 µM), an IC50 (Macrophage cells (J774); Table 4, J774) of 3.01 µg/mL (≈ 7.73 µM) and an IC50 (Neuronal cells (NG108); Table 4, NG108) of 36.8 µg/mL (≈ 94.5 µM). For the same compound, the IC50 [2, 4] was 0.291 µg/mL (≈ 0.748 µM).
With `C=CCOC(=O)N1CCCC(OCC)[C@H]1CC(=O)Cn1cnc2ccccc2c1=O` (stereo partly drawn) [WR088442] the IC50 (PfMRK) was ~25 µM, the IC50 [1, 5] was 0.288 µg/mL (≈ 0.696 µM) and the IC50 [1, 3] was 0.245 µg/mL (≈ 0.593 µM). It also gave an IC50 (Macrophage cells (J774); Table 2, J774) of 9.1 µg/mL (≈ 22 µM), an IC50 (Macrophage cells (J774); Table 4, J774) of 7.09 µg/mL (≈ 17.1 µM) and an IC50 (Neuronal cells (NG108); Table 2, NG108) of 21.5 µg/mL (≈ 52 µM). It also gave an IC50 (Neuronal cells (NG108); Table 4, NG108) of 35.1 µg/mL (≈ 84.8 µM), an IC50 [2, 6] of 0.203 µg/mL (≈ 0.491 µM) and an IC50 [2, 4] of 0.193 µg/mL (≈ 0.466 µM).
Compound `C=CCOC(=O)N1CCCC(OC)[C@H]1CC(=O)Cn1cnc2cc3c(cc2c1=O)OCO3` (stereo partly drawn) [WR089904] has an IC50 [1, 5] of 0.129 µg/mL (≈ 0.292 µM), an IC50 [1, 3] of 0.129 µg/mL (≈ 0.292 µM) and an IC50 (Macrophage cells (J774); Table 2, J774) of 29.2 µg/mL (≈ 65.7 µM). It also gave an IC50 (Macrophage cells (J774); Table 4, J774) of 1.08 µg/mL (≈ 2.43 µM), an IC50 (Neuronal cells (NG108); Table 2, NG108) of 63 µg/mL (≈ 142 µM) and an IC50 (Neuronal cells (NG108); Table 4, NG108) of 53.3 µg/mL (≈ 120 µM). The IC50 [2, 6] was 0.0897 µg/mL (≈ 0.202 µM) and the IC50 [2, 4] was 0.0897 µg/mL (≈ 0.202 µM).
